Five compounds from patent publication US20080306040A1, “Antibacterial amide macrocycles VII” (priority 2005, published 2008) can be followed below.

Assay [1] deals with S. aureus 133. In words: Minimum inhibitory concentration (MIC), S. aureus 133. Type of assay: cell-based. How it is done: (§1) Determination of the Minimum Inhibitory Concentration (MIC)
(§2) The minimum inhibitory concentration (MIC) is the minimum concentration of an antibiotic with which the growth of a test microbe is inhibited over 18-24 h. The inhibitor concentration can thereby be determined by standard microbiological methods (see, for example, The National Committee for Clinical Laboratory Standards. Methods for dilution antimicrobial susceptibility tests for bacteria that grow aerobically; approved standard-fifth edition. NCCLS document M7-A5 [ISBN 1-56238-394-9]. NCCLS, 940 West Valley Road, Suite 1400, Wayne, Pa. 19087-1898 USA, 2000). The MIC of the compounds of the invention is determined in the liquid dilution test on the 96-well microtiter plate scale. The bacterial microbes are cultivated in a minimal medium (18.5 mM Na2HPO4, 5.7 mM KH2PO4, 9.3 mM NH4Cl, 2.8 mM MgSO4, 17.1 mM NaCl, 0.033 μg/ml of thiamine hydrochloride, 1.2 μg/ml of nicotinic acid, 0.003 μg/ml of biotin, 1% glucose, 25 μg/ml of each proteinogenic amino acid with the exception of phenylalanine; [H.-P. Kroll; unpublished]) with addition of 0.4% BH broth (test medium). In the case of Enterococcus faecium L4001, heat-inactivated fetal calf serum (FCS; GibcoBRL, Germany) is added to the test medium in a final concentration of 10%. Overnight cultures of the test microbes are diluted to an OD578 of 0.001 (to 0.01 in the case of enterococci) in fresh test medium, and incubated 1:1 with dilutions of the test substances (1:2 dilution steps) in test medium (200 μl final volume). The cultures are incubated at 37° C. for 18-24 hours; enterococci in the presence of 5% CO2.
(§3) The lowest substance concentration in each case at which no visible bacterial growth occurs any longer is defined as the MIC.
(§4) Alternative Method for Determining the Minimum Inhibitory Concentration (MIC)
The minimum inhibitory concentration (MIC) is the minimum concentration of an antibiotic with which the growth of a test microbe is inhibited over 18-24 h. The inhibitor concentration can thereby be determined by standard microbiological methods with modified medium in an agar dilution test (see, for example, The National Committee for Clinical Laboratory Standards. Methods for dilution anti-microbial susceptibility tests for bacteria that grow aerobically; approved standard-fifth edition. NCCLS document M7-A5 [ISBN 1-56238-394-9]. NCCLS, 940 West Valley Road, Suite 1400, Wayne, Pa. 19087-1898 USA, 2000). The bacterial microbes are cultivated on 1.5% agar plates which contain 20% defibrinated horse blood. The test microbes, which are incubated overnight on Columbia blood agar plates (Becton-Dickinson), are diluted in PBS, adjusted to a microbe count of about 5×10^5 microbes/ml and placed dropwise (1-3 μl) on test plates. […]

Assay [2] deals with S. aureus T17. Description: Minimum inhibitory concentration (MIC), biphenomycin-resistant S. aureus T17. In kind it is cell-based. To be noted: for MIC: Staphylococcus aureus, T17. How it is done:
as §1, §2, §3, §4
The minimum inhibitory concentration (MIC) is the minimum concentration of an antibiotic with which the growth of a test microbe is inhibited over 18-24 h. The inhibitor concentration can thereby be determined by standard microbiological methods with modified medium in an agar dilution test (see, for example, The National Committee for Clinical Laboratory Standards. Methods for dilution anti-microbial susceptibility tests for bacteria that grow aerobically; approved standard-fifth edition. NCCLS document M7-A5 [ISBN 1-56238-394-9]. NCCLS, 940 West Valley Road, Suite 1400, Wayne, Pa. 19087-1898 USA, 2000). The bacterial microbes are cultivated on 1.5% agar plates which contain 20% defibrinated horse blood. The test microbes, which are incubated overnight on Columbia blood agar plates (Becton-Dickinson), are diluted in PBS, adjusted to a microbe count of about 5×10^5 microbes/ml and placed dropwise (1-3 μl) on test plates. The test substances comprise different dilutions of the test substances (1:2 dilution steps). The cultures are incubated at 37° C. in the presence of 5% CO2 for 18-24 hours.
The lowest substance concentration in each case at which no visible bacterial growth occurs any longer is defined as the MIC and is reported in μg/ml.
The S. aureus strain T17 is isolated in vivo. CFW1 mice are infected intraperitoneally with 4×10^7 S. aureus 133 cells per mouse. 0.5 h after the infection, the animals are treated intravenously with 50 mg/kg of biphenomycin B. The kidneys are removed from the surviving animals on day 3 after the infection. […]

Assay [3] concerns the target S. aureus 133 Translation. Description: S. aureus in vitro transcription-translation assay (firefly luciferase, S30 extract). Type of assay: biochemical. To be noted: 50% inhibition of the translation of firefly luciferase. From the text:
In Vitro Transcription-Translation with S. aureus Extracts
Construction of an S. aureus Luciferase Reporter Plasmid
In order to construct a reporter plasmid which can be used in an in vitro transcription-translation assay from S. aureus the plasmid pBESTluc (Promega Corporation, USA) is used. The E. coli tac promoter present in this plasmid in front of the firefly luciferase is replaced with the capA1 promoter with corresponding Shine-Dalgarno sequence from S. aureus. The primers CAPF or 5′-[…]-[…]-3′ and CAPRev 5′-[…]-3′ are used for this. The primer CAPFor contains the capA1 promoter, the ribosome binding site and the 5′ region of the luciferase gene. After PCR using pBESTluc as template it is possible to isolate a PCR product which contains the firefly luciferase gene with the fused capA1 promoter. This is, after restriction with ClaI and HindIII, ligated into the vector pBESTluc which has likewise been digested with ClaI and HindIII. The resulting plasmid p1a can be replicated in E. coli and be used as template in the S. aureus in vitro transcription-translation test.
Preparation of S30 Extracts from S. aureus
Six litres of BHI medium are inoculated with a 250 ml overnight culture of an S. aureus strain and allowed to grow at 37° C. up to an OD600 nm of 2-4. The cells are harvested by centrifugation and washed in 500 ml of cold buffer A (10 mM Tris acetate, pH 8.0, 14 mM magnesium acetate, 1 mM DTT, […]). After renewed centrifugation, the cells are washed in 250 ml of cold buffer A with 50 mM KCl, and the resulting pellets are frozen at −20° C. for 60 min. The pellets are thawed on ice in 30 to 60 min and taken up to a total volume of 99 ml in buffer B (10 mM Tris acetate, pH 8.0, 20 mM magnesium acetate, 1 mM DTT, 50 mM KCl). 1.5 ml portions of lysostaphin (0.8 mg/ml) in buffer B are provided in 3 precooled centrifuge cups and each mixed with 33 ml of the cell suspension. The samples are incubated at 37° C., for 45 to 60 min shaking occasionally, before 150 μl of a 0.5 M DTT solution are added. The lysed cells are centrifuged at 30 000×g and 4° C. for 30 min. The cell pellet is taken up in buffer B and then centrifuged again under the same conditions, and the collected supernatants are combined. The supernatants are centrifuged again under the same conditions, and 0.25 volumes of buffer C (670 mM Tris acetate, pH 8.0, 20 mM magnesium acetate, 7 mM Na3 phosphoenolpyruvate, 7 mM DTT, 5.5 mM ATP, 70 μM amino acids (complete from Promega), 75 μg of pyruvate kinase (Sigma, Germany))/ml are added to the upper ⅔ of the supernatant. […]
The inhibition of protein biosynthesis of the compounds can be shown in an in vitro transcription-translation assay. […] The activity of the resulting luciferase can be detected by luminescence measurement. […]

Assay [4] has as its system S. aureus RN4220. In words: Spontaneous resistance rate, S. aureus RN4220. Type of assay: cell-based. To be noted: agar plate containing 2 μg/ml of biphenomycin B (10×MIC), 37° C. overnight. As for the experimental part: The spontaneous resistance rates for the compounds of the invention are determined as follows: the bacterial microbes are cultivated in 30 ml of a minimal medium (18.5 mM Na2HPO4, 5.7 mM KH2PO4, 9.3 mM NH4Cl, 2.8 mM MgSO4,17.1 mM NaCl, 0.033 μg/ml of thiamine hydrochloride, 1.2 μg/ml of nicotinic acid, 0.003 μg/ml of biotin, 1% glucose, 25 μg/ml of each proteinogenic amino acid with the addition of 0.4% BH broth) at 37° C. over-night, centrifuged at 6000×g for 10 min and resuspended in 2 ml of a phosphate-buffered physiological NaCl solution (about 2×10^9 microbes/ml). […] The resulting colonies (cfu) are counted.
The S. aureus strain RN4220Bi^R is isolated in vitro. For this purpose, 100 μl portions of an S. aureus RN4220 cell suspension (about 1.2×10^8 cfu/ml) are plated out on an antibiotic-free agar plate (18.5 mM Na2HPO4, 5.7 mM KH2PO4, 9.3 mM NH4Cl, 2.8 mM MgSO4, 17.1 mM NaCl, 0.033 μg/ml of thiamine hydrochloride, 1.2 μg/ml of nicotinic acid, 0.003 μg/ml of biotin, 1% glucose, 25 μg/ml of each proteinogenic amino acid with the addition of 0.4% BH broth and 1% agarose) and on an agar plate containing 2 μg/ml of biphenomycin B (10×MIC), and incubated at 37° C. overnight. Whereas about […] cells grow on the antibiotic-free plate, about 100 colonies grow on the antibiotic-containing plate, corresponding to a resistance rate of 1×10^−5. […]

The subject of assay [5] is S. aureus RN4220Bi^R. Description: MIC against biphenomycin-resistant S. aureus RN4220Bi^R. Type of assay: cell-based. To be noted: colony isolated in vitro from antibiotic-containing plate. How it is done: The S. aureus strain RN4220Bi^R is isolated in vitro. For this purpose, 100 μl portions of an S. aureus RN4220 cell suspension (about 1.2×10^8 cfu/ml) are plated out on an antibiotic-free agar plate (18.5 mM Na2HPO4, 5.7 mM KH2PO4, 9.3 mM NH4Cl, 2.8 mM MgSO4, 17.1 mM NaCl, 0.033 μg/ml of thiamine hydrochloride, 1.2 μg/ml of nicotinic acid, 0.003 μg/ml of biotin, 1% glucose, 25 μg/ml of each proteinogenic amino acid with the addition of 0.4% BH broth and 1% agarose) and on an agar plate containing 2 μg/ml of biphenomycin B (10×MIC), and incubated at 37° C. overnight. Whereas about […] cells grow on the antibiotic-free plate, about 100 colonies grow on the antibiotic-containing plate, corresponding to a resistance rate of 1×10^−5. Some of the colonies grown on the antibiotic-containing plate are tested for the biphenomycin B MIC. One colony with a MIC of >50 μM is selected for further use, and the strain is referred to as RN4220Bi^R.

The subject of assay [6] is S. aureus 133. In words: Systemic infection with S. aureus 133 (mouse sepsis model). To be noted: female CFW1 mice, i.p. infection, i.v. therapy 30 minutes after infection, survival over 6 days. In kind it is in vivo.
Where [7] appears, read: Staphylococcus aureus, 133, read-out: MIC S. aureus 133.

Counter-ions that a name gives are not always drawn. Like-named read-outs stand apart in the source and are kept apart here.

`NC[C@H](O)C[C@@H]1NC(=O)[C@@H](N)Cc2cc(ccc2O)-c2ccc(O)c(c2)C[C@@H](C(=O)O)NC1=O` [Biphenomycin B, biphenomycin B, reference compound]: in assay [1], the “MIC S. aureus 133” value is less than 0.03 µg/mL. Further, the “MIC S. aureus T17” value in assay [2] (biphenomycin-resistant strain) was greater than 32 µg/mL. Also, in assay [2] (colony isolated in vivo from kidney of treated mice), the “MIC of selected colony (strain T17)” value was greater than 50 µM. Also, in assay [3], the IC50 (usually the midpoint of a concentration-inhibition curve) was found to be 1500 nM. The resistance rate in assay [4] is reported as 1×10^−5. The “MIC of selected colony (strain RN4220Bi^R)” value in assay [5] was greater than 50 µM.
Consider `NCCC[C@H](N)CNC(=O)C[C@H](CCCN)NC(=O)C[C@@H]1Cc2cccc(c2)-c2ccc(O)c(c2)C[C@H](N)C(=O)N[C@@H](CCCN)C(=O)N1` [Example 1, (3S)-6-Amino-3-({[(8S11,S14S)-14-amino-11-(3-aminopropyl)-17-hydroxy-10,13-dioxo-9,12-diazatricyclo[14.3.1.1^2,6]henicosa-1(20),2(21),3,5,16,18-hexaen-8-yl]acetyl{amino)-N-[(2S)-2,5-diaminopentyl]hexanamidepentahydrochloride], for which the MIC (usually the least concentration at which growth counts as inhibited) is 2 µg/mL in assay [1] (Staphylococcus aureus, 133; read-out: MIC S. aureus 133) and 2 µg/mL in assay [2] (biphenomycin-resistant strain). This compound showed an IC50 in assay [3] of 350 nM.
On to `NCCC[C@H](N)CNC(=O)C[C@@H]1Cc2cccc(c2)-c2ccc(O)c(c2)C[C@H](N)C(=O)N[C@@H](CCCN)C(=O)N1` [Example 5, 2-[(8S,11S,14S)-14-Amino-11-(3-aminopropyl)-17-hydroxy-10,13-dioxo-9,12-diazatricyclo[14.3.1.1^2,6]henicosa-1(20),2(21),3,5,16,18-hexaen-8-yl]-N-[(2S)-2,5-diaminopentyl]acetamide tetrahydrochloride], for which the MIC in assay [1] (setting [7]) and in assay [2] (biphenomycin-resistant strain) was 2 µg/mL throughout. For the same compound, the IC50 in assay [3] came out at 700 nM.
As to `NCCC[C@H](N)CNC(=O)C[C@@H](N)CCCNC(=O)[C@H](CCCN)NC(=O)C[C@@H]1Cc2cccc(c2)-c2ccc(O)c(c2)C[C@H](N)C(=O)N[C@@H](CCCN)C(=O)N1` [Example 7, (3S)-3-Amino-6-[(N^2-{[(8S,11S,14S)-14-amino-11-(3-aminopropyl)-17-hydroxy-10,13-dioxo-9,12-diazatricyclo[14.3.1.1^2,6]henicosa-1(20), 2(21), 3,5,16,18-hexaen-8-yl]acetyl}-L-ornithyl)amino]-N-[(2S)-2,5-diaminopentyl]hexanamide hexahydrochloride], the MIC in assay [1] (setting [7]) and in assay [2] (biphenomycin-resistant strain) was 2 µg/mL each time. The compound also returned an IC50 in assay [3] of 200 nM.
As to `NCCC[C@H](NC(=O)C[C@@H]1Cc2cccc(c2)-c2ccc(O)c(c2)C[C@H](N)C(=O)N[C@@H](CCCN)C(=O)N1)C(=O)NCCN` [Example 2, N^2-{[(8S,11S,14S)-14-Amino-11-(3-aminopropyl)-17-hydroxy-10,13-dioxo-9,12-diazatricyclo[14.3.1.1^2,6]henicosa-1(20), 2(21),3,5,5,16,18-hexaen-8-yl]acetyl}-N-(2-aminoethyl)-L-ornithinamide tetrahydrochloride], the “therapeutic activity ED100” value in assay [6] worked out at 1.25 mg/kg.
